Molecular target: T1, human A2a receptor (Homo sapiens, UniProt P29274)
T1 construct: purchased Perkin-Elmer RBHA2AM400UA; host or cells: HEK293 cells (membranes)
Experiment: A2a competition binding assay, Scintillation Proximity technology
Details: membranes from HEK293 cells expressing human A2a receptor; 0.5 nM tritiated ligand
Summary of the method: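 Membranes from HEK293 cells expressing human A2a, adenosine deaminase-treated, incubated 1 h at room temperature with compound (3000 to 0.15 nM) and 0.5 nM tritiated pyrazolotriazolopyrimidine radioligand on WGA SPA beads in Ca/Mg-free PBS + 10 mM MgCl2. Non-specific binding with 1 μM CGS15943; Ki by Cheng-Prusoff.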

T1 sequence (P29274 whole entry): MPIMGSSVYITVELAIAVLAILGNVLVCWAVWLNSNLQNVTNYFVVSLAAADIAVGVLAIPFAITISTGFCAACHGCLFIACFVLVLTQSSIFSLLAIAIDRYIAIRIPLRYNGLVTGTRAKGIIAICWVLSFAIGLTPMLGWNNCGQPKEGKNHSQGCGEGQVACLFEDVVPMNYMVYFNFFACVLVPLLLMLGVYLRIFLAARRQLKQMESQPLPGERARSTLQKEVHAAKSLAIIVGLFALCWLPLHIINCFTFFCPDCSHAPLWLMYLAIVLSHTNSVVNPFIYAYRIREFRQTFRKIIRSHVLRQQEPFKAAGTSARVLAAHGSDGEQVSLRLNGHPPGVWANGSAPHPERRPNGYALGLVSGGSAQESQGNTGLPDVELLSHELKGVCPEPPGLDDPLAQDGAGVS

In the case of `Cc1cccnc1CNC(=O)c1nc(C)c(-c2ncco2)nc1N` [Ex-5, 3-amino-6-methyl-N-[(3-methylpyridin-2-yl)methyl]-5-(1,3-oxazol-2-yl)pyrazine-2-carboxamide], the EC50 is reported as 4.7 nM.

Same assay, conditions: membranes from HEK293 cells expressing human A2a receptor; Ki by Cheng-Prusoff equation

Compared with `Cc1nc(C(=O)NCC(C)(C)c2ccncc2)c(N)nc1-c1ncco1` [Ex-60, 3-amino-6-methyl-N-(2-methyl-2-pyridin-4-ylpropyl)-5-(1,3-oxazol-2-yl)pyrazine-2-carboxamide], `Cc1nc(C(=O)NCc2ccncc2)c(N)nc1-c1ncco1` [Ex-27, 3-amino-6-methyl-5-(1,3-oxazol-2-yl)-N-(pyridin-4-ylmethyl)pyrazine-2-carboxamide] is 13-fold higher in Ki: 9.2 nM for the first, 120 nM for the second. The first binds more tightly here.

First: Nc1nc(-n2ccnn2)c(Cl)nc1C(=O)NCc1ccccc1C(F)(F)F [Ex-268, 3-amino-6-chloro-5-(1H-1,2,3-triazol-1-yl)-N-[2-(trifluoromethyl)benzyl] pyrazine-2-carboxamide]
Second: Nc1nc(-n2nccn2)c(Cl)nc1C(=O)NCc1cccc2cnccc12 [Ex-296, 3-amino-6-chloro-N-(isoquinolin-5-ylmethyl)-5-(2H-1,2,3-triazol-2-yl)pyrazine-2-carboxamide]
The Ki of the first is 10-fold higher: 359 nM for the first, 35.6 nM for the second. The second binds more tightly here.

Compared with `Cc1nc(C(=O)NCc2ccc(F)nc2)c(N)nc1-c1ncco1` [Ex-53, 3-amino-N-[(6-fluoropyridin-3-yl)methyl]-6-methyl-5-(1,3-oxazol-2-yl)pyrazine-2-carboxamide], `Cc1nc(C(=O)NCc2cccc(F)c2)c(N)nc1-c1ncco1` [Ex-31, 3-amino-N-(3-fluorobenzyl)-6-methyl-5-(1,3-oxazol-2-yl)pyrazine-2-carboxamide] is 35-fold lower in Ki: 26.1 nM for the first, 0.737 nM for the second.

First: Cc1nc(C(=O)NCc2nccc3ncn(C)c23)c(N)nc1-c1ncco1 [Ex-198, 3-amino-6-methyl-N-[(3-methyl-3H-imidazo[4,5-c]pyridin-4-yl)methyl]-5-(1,3-oxazol-2-yl)pyrazine-2-carboxamide]
Second: Cc1cccnc1CNC(=O)c1nc(C)c(-c2ncco2)nc1N [Ex-5, 3-amino-6-methyl-N-[(3-methylpyridin-2-yl)methyl]-5-(1,3-oxazol-2-yl)pyrazine-2-carboxamide]
The Ki of the first is 44-fold higher: 8.77 nM for the first, 0.199 nM for the second. The second binds more tightly here.

Going from `Cc1nc(C(=O)NCc2c(F)cccc2F)c(N)nc1-c1cnco1` [Ex-251, 3-amino-N-(2,6-difluorobenzyl)-6-methyl-5-(1,3-oxazol-5-yl)pyrazine-2-carboxamide] to `Cc1nc(C(=O)NCc2ncccc2C(F)(F)F)c(N)nc1-c1cnco1` [Ex-249, 3-amino-6-methyl-5-(1,3-oxaol-5-yl)-N-{[3-(trifluoromethyl)-pyridin-2-yl]-methyl}pyrazine-2-carboxamide], the Ki rises from 1.1 nM to 3.45 nM (3.1-fold). The first binds more tightly here.

Compared with `Cc1cn(C)nc1CNC(=O)c1nc(C)c(-c2ncco2)nc1N` [Ex-77, 3-amino-N-[(1,4-dimethyl-1H-pyrazol-3-yl)methyl]-6-methyl-5-(1,3-oxazol-2-yl)pyrazine-2-carboxamide], `Cc1nc(C(=O)NCc2nccn2C)c(N)nc1-c1ncco1` [Ex-15, 3-amino-6-methyl-N-[(1-methyl-1H-imidazol-2-yl)methyl]-5-(1,3-oxazol-2-yl)pyrazine-2-carboxamide] is 1.5-fold higher in Ki: 0.828 nM for the first, 1.25 nM for the second. The first binds more tightly here.

Compared with `Cc1nc(C(=O)NCc2ccc(C(C)C)cc2)c(N)nc1-c1ncco1` [Ex-133, 3-amino-6-methyl-N-[4-(1-methylethyl)benzyl]-5-(1,3-oxazol-2-yl)pyrazine-2-carboxamide], `Cc1ccc(C(C)C)nc1CNC(=O)c1nc(C)c(-c2ncco2)nc1N` [Ex-89, 3-amino-6-methyl-N-{[3-methyl-6-(1-methylethyl)pyridin-2-yl]methyl}-5-(1,3-oxazol-2-yl)pyrazine-2-carboxamide] is 3.5-fold lower in Ki: 2.59 nM for the first, 0.746 nM for the second.

First: Cc1nc(C(=O)NCc2ccccc2O)c(N)nc1-c1ncco1 [Ex-153, 3-amino-N-(2-hydroxybenzyl)-6-methyl-5-(1,3-oxazol-2-yl)pyrazine-2-carboxamide]
Second: Cc1ccc2nc(CNC(=O)c3nc(C)c(-c4ncco4)nc3N)cn2c1 [Ex-102, 3-amino-6-methyl-N-[(6-methylimidazo[1,2-a]pyridin-2-yl)methyl]-5-(1,3-oxazol-2-yl)pyrazine-2-carboxamide]
The Ki of the first is 84-fold lower: 0.141 nM for the first, 11.9 nM for the second.

First: Nc1nc(-n2nccn2)c(Cl)nc1C(=O)NCc1cccc2c1C(=O)NC2 [Ex-314, 3-amino-6-chloro-N-[(3-oxo-2,3-dihydro-1H-isoindol-4-yl)methyl]-5-(2H-1,2,3-triazol-2-yl)pyrazine-2-carboxamide]
Second: Cc1nc(C(=O)NCc2c(F)cccc2F)c(N)nc1-n1nccn1 [Ex-274, 3-amino-N-(2,6-difluorobenzyl)-6-methyl-5-(2H-1,2,3-triazol-2-yl)pyrazine-2-carboxamide]
The Ki of the first is 1.9-fold higher: 3.7 nM for the first, 2 nM for the second. The second binds more tightly here.

First: CCc1cnc(CNC(=O)c2nc(C)c(-c3ncco3)nc2N)nc1 [Ex-199, 3-amino-N-[(5-ethylpyrimidin-2-yl)methyl]-6-methyl-5-(1,3-oxazol-2-yl)pyrazine-2-carboxamide]
Second: CCc1nccnc1CNC(=O)c1nc(C)c(-c2ncco2)nc1N [Ex-187, 3-amino-N-[(3-ethylpyrazin-2-yl)methyl]-6-methyl-5-(1,3-oxazol-2-yl)pyrazine-2-carboxamide]
The Ki of the first is 21-fold higher: 9.42 nM for the first, 0.449 nM for the second. The second binds more tightly here.

`COC(=O)[C@@H](CO)NC(=O)c1nc(Cl)c(-n2nccn2)nc1N` [Ex-318, methyl N-{[3-amino-6-chloro-5-(2H-1,2,3-triazol-2-yl)pyrazin-2-yl]carbonyl}-D-serinate] and `CN(Cc1cccc2cccnc12)C(=O)c1nc(Cl)c(-n2nccn2)nc1N` [Ex-290, 3-amino-6-chloro-N-methyl-N-(quinolin-8-ylmethyl)-5-(2H-1,2,3-triazol-2-yl)pyrazine-2-carboxamide] are within 1.5-fold of each other in Ki: 317 nM for the first, 318 nM for the second.

First: Cc1cnn(-c2nc(N)c(C(=O)NCc3ccc4cc[nH]c4c3)nc2Cl)c1 [Ex-354, 3-amino-6-chloro-N-(1H-indol-6-ylmethyl)-5-(4-methyl-1H-pyrazol-1-yl)pyrazine-2-carboxamide]
Second: Cc1cnn(-c2nc(N)c(C(=O)NCc3cn4ccsc4n3)nc2Cl)c1 [Ex-359, 3-amino-6-chloro-N-(imidazo[2,1-b][1,3]thiazol-6-ylmethyl)-5-(4-methyl-1H-pyrazol-1-yl)pyrazine-2-carboxamide]
The Ki of the first is 4.3-fold higher: 390 nM for the first, 90 nM for the second.

`Cc1cnn(-c2nc(N)c(C(=O)NCc3ncccc3C)nc2Cl)n1` [Ex-345, 3-amino-6-chloro-N-[(3-methylpyridin-2-yl)methyl]-5-(4-methyl-2H-1,2,3-triazol-2-yl)pyrazine-2-carboxamide] and `Cc1cnc(-c2nc(N)c(C(=O)NCc3ncccc3C)nc2C)o1` [Ex-383, 3-amino-6-methyl-5-(5-methyl-1,3-oxazol-2-yl)-N-[(3-methylpyridin-2-yl)methyl]pyrazine-2-carboxamide] are within 1.5-fold of each other in Ki: 6 nM for the first, 6.4 nM for the second.

Compared with `Cc1nc(C(=O)NCc2ncc(F)cc2C2CC2)c(N)nc1-c1ncco1` [Ex-169, 3-amino-N-[(3-cyclopropyl-5-fluoropyridin-2-yl)methyl]-6-methyl-5-(1,3-oxazol-2-yl)pyrazine-2-carboxamide], `CCc1cc(C(F)(F)F)cnc1CNC(=O)c1nc(C)c(-c2ncco2)nc1N` [Ex-196, 3-amino-N-{[3-ethyl-5-(trifluoromethyl)pyridin-2-yl]methyl}-6-methyl-5-(1,3-oxazol-2-yl)pyrazine-2-carboxamide] is 6.7-fold higher in Ki: 0.375 nM for the first, 2.53 nM for the second. The first binds more tightly here.

Work on `COc1ccc2c(c1)CCC2NC(=O)c1nc(C)c(-c2ncco2)nc1N` (single isomer, unassigned) [Ex-231A, 3-amino-N-(5-methoxy-2,3-dihydro-1H-inden-1-yl)-6-methyl-5-(1,3-oxazol-2-yl)pyrazine-2-carrboxamide] yielded a Ki of 29.2 nM.

Source: patent US10472347B2, “Aminopyrazine compounds with A2A antagonist properties” (Merck Sharp & Dohme Corp., priority 2014, dated 2019)
